# Numbered stars: 1 amine (or outer) side, 2 acyl side, 3 side chain; on linkers, the order of the positions; unused ones are H or OH. Square brackets hold non-standard residues; d marks the D form. Peptide text beside a SMILES is read from it. * marks the point of attachment. DOTA = O=C(O)CN1CCN(CC(=O)O)CCN(CC(=O)*)CCN(CC(=O)O)CC1; d(γGlu) = O=C(O)[C@@H](CCC(=O)[*:2])N[*:1]; 1Nal = N[C@@H](Cc1cccc2ccccc12)C(=O)O; NMeNle = CCCC[C@H](NC)C(=O)O; PEG4 = NCCOCCOCCOCCOCCC(=O)O
# What was measured:
# in vivo [1] = test: in vivo; design: species or system BALB/c nude mice; conditions: female, BALB/c nude, mouse, iv, total radioactivity
# Method: For the micro-positron emission tomography/computed tomography (microPET/CT) imaging study, BALB/c nude mice bearing AR42J tumors (detailed in Supplementary Methods Section S3: Mouse Models) were intravenously injected with 3.7 MBq of [^68Ga]Ga-DOTA-CCK2R-dimer (≈ 120 pmol) or [^68Ga]Ga-DOTA-CCK-66 (≈ 210 pmol) (dissolved in 200 μL of saline; n = 3/group), and microPET/CT imaging was performed at 30, 60, and 120 min post-injection. The mice were anesthetized via inhalation of an isoflurane mixture approximately 5 min before each PET/CT acquisition began. To confirm tumor-specific radiopharmaceutical uptake, blocking experiments were conducted at the 1-h time point of imaging by coinjecting the mice with the radiopharmaceutical and a 400-fold excess of the lead compound.
# (§1) All animal studies were approved by the Ethics Committee of Fudan University
# (§2) Shanghai Cancer Center (No. FUSCC-IACUC- S2023- 0003). Five-week-old female
# (§3) BALB/c nude mice were purchased from Shanghai SLAC Laboratory Animal
# (§4) Company. To establish cell-derived xenograft (CDX) models, 1 × 10⁶ AR42J cells
# (§5) (100 μL) were subcutaneously inoculated into the right shoulder of each mouse. […]
# [2] = design: species or system KM mice; conditions: mouse, in vivo, iv
# Method: To evaluate the clearance rates of [^68Ga]Ga-DOTA-CCK2R-dimer and [^68Ga]Ga-DOTA-CCK-66 from the blood, a pharmacokinetic study was conducted in male KM mice (4-6 weeks old, 18-20 g, n = 5/group). Each mouse received 3.7 MBq of radiotracer via tail vein injection, corresponding to approximately 120 pmol of [^68Ga]Ga-DOTA-CCK2R-dimer or 210 pmol of [^68Ga]Ga-DOTA-CCK-66. Blood samples were collected from the tail vein into preweighed capillary tubes at 1, 3, 5, 10, 15, 30, 60, 90, 120, and 150 min post-injection. The radioactivity of the blood samples was measured using a γ-counter, and the percent of injected dose per gram of tissue (%ID/g) was calculated. Additionally, we assessed the in vivo stability of [^177Lu]Lu-DOTA-CCK2R-dimer. Mice were intravenously injected with 7.4 MBq (≈ 240 pmol) of [^177Lu]Lu-DOTA-CCK2R-dimer (dissolved in 200 μL of saline; n = 3/group). Urine samples were collected at 1, 4, and 24 hours post-injection, then diluted, filtered through a 0.22 μm membrane, and analyzed by radio-HPLC.
# All animal studies were approved by the Ethics Committee of Fudan University […]
# Shanghai Cancer Center (No. FUSCC-IACUC- S2023- 0003). […]
# Pharmacokinetics in Normal Mice
# F or the pharmacokinetics study, […] male KM mice (4 - 6 weeks old, weighing 18 - 20 g) were administered either [68Ga]Ga-D O TA -CCK2R-dimer or [68Ga]Ga-D O TA -CCK- 66 (3.7 MBq per mouse, n = 5/group) via tail vein injection.
# Blood samples were collected from the tail vein using pre-weighed capillary tubes at […]
# Radioactivity levels were measured using a gamma counter, with decay correction applied based on the injection time. The percentage of injected dose per gram of tissue (%ID/g) was calculated for each time point. […]
# in vivo [3] = test: in vivo; design: species or system BALB/c nude mice; conditions: mouse; for tissue to tissue ratio at 0.5 h / tissue to tissue ratio at 1 h / tissue to tissue ratio at 2 h: female, BALB/c nude, iv, 3.7 MBq, total radioactivity
# Method: To complement the imaging studies, biodistribution experiments were performed. AR42J tumor-bearing mice were intravenously injected with 3.7 MBq of [^68Ga]Ga-DOTA-CCK2R-dimer (≈ 120 pmol) or [^68Ga]Ga-DOTA-CCK-66 (≈ 210 pmol) (dissolved in 200 μL of saline; n = 3/group). The mice were sacrificed at 30, 60, and 120 min post-injection, and the tissues of interest were excised, weighed, and analyzed for radioactivity using a γ-counter. For blocking studies, a 400-fold excess of the lead compound was co-administered, and the mice were sacrificed at 1 h post-injection.
# as §1, §2, §3, §4, §5
# [4] = Tumor-to-Large intestine ratio (T/B)
# [5] = Tumor-to-Small intestine ratio (T/B)
smiles,measurement,setting,value
"CCCC[C@@H](C(=O)N[C@@H](CC(=O)O)C(=O)N[C@@H](Cc1cccc2ccccc12)C(N)=O)N(C)C(=O)[C@H](Cc1c[nH]c2ccccc12)NC(=O)CCOCCOCCOCCOCCNC(=O)CC[C@@H](NC(=O)CN1CCN(CC(=O)O)CCN(CC(=O)O)CCN(CC(=O)O)CC1)C(=O)O [[68Ga]Ga-DOTA-CCK-66, metal not drawn, reference compound] ({DOTA-d(γGlu)-PEG4}-W[NMeNle]D[1Nal]-NH2)",tissue uptake at 0.5 h,in vivo [1]; 3.7 MBq,16 ± 2.18 %ID/g
same,tissue uptake at 1 h,in vivo [1]; 3.7 MBq,19.5 ± 2.95 %ID/g
same,tissue uptake at 2 h,in vivo [1]; 3.7 MBq,19.6 ± 3.35 %ID/g
same,tissue uptake at 1 h,in vivo [1],7.9 ± 1.35 %ID/g
same,half-life,[2],11.8 min
same,t1/2α,[2],0.67 min
same,tissue to tissue ratio at 0.5 h,in vivo [3]; Tumor-to-Bladder ratio (T/B),1.95 ± 0.96
same,tissue to tissue ratio at 1 h,in vivo [3]; Tumor-to-Bladder ratio (T/B),4.41 ± 1.16
same,tissue to tissue ratio at 2 h,in vivo [3]; Tumor-to-Bladder ratio (T/B),7.5 ± 2.91
same,tissue to tissue ratio at 0.5 h,in vivo [3]; Tumor-to-Blood ratio (T/B),2.48 ± 0.27
same,tissue to tissue ratio at 1 h,in vivo [3]; Tumor-to-Blood ratio (T/B),6.36 ± 1.3
same,tissue to tissue ratio at 2 h,in vivo [3]; Tumor-to-Blood ratio (T/B),18.1 ± 14.9
same,tissue to tissue ratio at 0.5 h,in vivo [3]; Tumor-to-Bone ratio (T/B),29.9 ± 14.1
same,tissue to tissue ratio at 1 h,in vivo [3]; Tumor-to-Bone ratio (T/B),34.9 ± 29.4
same,tissue to tissue ratio at 2 h,in vivo [3]; Tumor-to-Bone ratio (T/B),98 ± 19.9
same,tissue to tissue ratio at 0.5 h,in vivo [3]; Tumor-to-Brain ratio (T/B),72.8 ± 22.6
same,tissue to tissue ratio at 1 h,in vivo [3]; Tumor-to-Brain ratio (T/B),91.4 ± 5.94
same,tissue to tissue ratio at 2 h,in vivo [3]; Tumor-to-Brain ratio (T/B),141 ± 66.3
same,tissue to tissue ratio at 0.5 h,in vivo [3]; Tumor-to-Heart ratio (T/B),10.9 ± 1.72
same,tissue to tissue ratio at 1 h,in vivo [3]; Tumor-to-Heart ratio (T/B),8.93 ± 4.2
same,tissue to tissue ratio at 2 h,in vivo [3]; Tumor-to-Heart ratio (T/B),33.2 ± 30.2
same,tissue to tissue ratio at 0.5 h,in vivo [3]; Tumor-to-Kidney ratio (T/B),1.8 ± 0.2
same,tissue to tissue ratio at 1 h,in vivo [3]; Tumor-to-Kidney ratio (T/B),1.1 ± 0.47
same,tissue to tissue ratio at 2 h,in vivo [3]; Tumor-to-Kidney ratio (T/B),1.67 ± 0.79
same,tissue to tissue ratio at 0.5 h,in vivo [3]; [4],5.91 ± 1.81
same,tissue to tissue ratio at 1 h,in vivo [3]; [4],13.3 ± 6.96
same,tissue to tissue ratio at 2 h,in vivo [3]; [4],26.2 ± 5.5
same,tissue to tissue ratio at 0.5 h,in vivo [3]; Tumor-to-Liver ratio (T/B),4.12 ± 0.63
same,tissue to tissue ratio at 1 h,in vivo [3]; Tumor-to-Liver ratio (T/B),4.3 ± 0.38
same,tissue to tissue ratio at 2 h,in vivo [3]; Tumor-to-Liver ratio (T/B),13.2 ± 7.75
same,tissue to tissue ratio at 0.5 h,in vivo [3]; Tumor-to-Lung ratio (T/B),3.22 ± 0.56
same,tissue to tissue ratio at 1 h,in vivo [3]; Tumor-to-Lung ratio (T/B),7.32 ± 5.81
same,tissue to tissue ratio at 2 h,in vivo [3]; Tumor-to-Lung ratio (T/B),11.7 ± 2.81
same,tissue to tissue ratio at 0.5 h,in vivo [3]; Tumor-to-Muscle ratio (T/M),6.69 ± 2.78
same,tissue to tissue ratio at 1 h,in vivo [3]; Tumor-to-Muscle ratio (T/M),10.2 ± 1.41
same,tissue to tissue ratio at 2 h,in vivo [3]; Tumor-to-Muscle ratio (T/M),15.2 ± 6.94
same,tissue to tissue ratio at 0.5 h,in vivo [3]; [5],5.83 ± 2.57
same,tissue to tissue ratio at 1 h,in vivo [3]; [5],7.43 ± 1.49
same,tissue to tissue ratio at 2 h,in vivo [3]; [5],25.7 ± 17.9
same,tissue to tissue ratio at 0.5 h,in vivo [3]; Tumor-to-Spleen ratio (T/B),4.46 ± 1.21
same,tissue to tissue ratio at 1 h,in vivo [3]; Tumor-to-Spleen ratio (T/B),7 ± 2.74
same,tissue to tissue ratio at 2 h,in vivo [3]; Tumor-to-Spleen ratio (T/B),24.9 ± 10.9
same,tissue to tissue ratio at 0.5 h,in vivo [3]; Tumor-to-Stomach ratio (T/B),4.5 ± 1.83
same,tissue to tissue ratio at 1 h,in vivo [3]; Tumor-to-Stomach ratio (T/B),5.06 ± 2.32
same,tissue to tissue ratio at 2 h,in vivo [3]; Tumor-to-Stomach ratio (T/B),6 ± 1.93
same,tissue uptake at 0.5 h,in vivo [3]; Bladder uptake,1.9 ± 1.13 %ID/g
same,tissue uptake at 1 h,in vivo [3]; Bladder uptake,1.59 ± 0.47 %ID/g
same,tissue uptake at 2 h,in vivo [3]; Bladder uptake,1.37 ± 0.43 %ID/g
same,tissue uptake at 0.5 h,in vivo [3]; Blood uptake,1.22 ± 0.15 %ID/g
same,tissue uptake at 2 h,in vivo [3]; Blood uptake,0.69 ± 0.3 %ID/g
same,tissue uptake at 0.5 h,in vivo [3]; Bone uptake,0.12 ± 0.05 %ID/g
same,tissue uptake at 2 h,in vivo [3]; Bone uptake,0.1 ± 0.04 %ID/g
same,tissue uptake at 0.5 h,in vivo [3]; Brain uptake,0.03 ± 0.01 %ID/g
same,tissue uptake at 2 h,in vivo [3]; Brain uptake,0.07 ± 0.01 %ID/g
same,tissue uptake at 0.5 h,in vivo [3]; Heart uptake,0.28 ± 0.04 %ID/g
same,tissue uptake at 2 h,in vivo [3]; Heart uptake,0.48 ± 0.31 %ID/g
same,tissue uptake at 0.5 h,in vivo [3]; Kidney uptake,1.68 ± 0.19 %ID/g
same,tissue uptake at 1 h,in vivo [3]; Kidney uptake,7.52 ± 1.95 %ID/g
same,tissue uptake at 2 h,in vivo [3]; Kidney uptake,6.4 ± 2.54 %ID/g
same,tissue uptake at 0.5 h,in vivo [3]; Large intestine uptake,0.55 ± 0.19 %ID/g
same,tissue uptake at 2 h,in vivo [3]; Large intestine uptake,0.37 ± 0.06 %ID/g
same,tissue uptake at 0.5 h,in vivo [3]; Liver uptake,0.74 ± 0.1 %ID/g
same,tissue uptake at 1 h,in vivo [3]; Liver uptake,1.57 ± 0.22 %ID/g
same,tissue uptake at 2 h,in vivo [3]; Liver uptake,0.54 ± 0.17 %ID/g
same,tissue uptake at 0.5 h,in vivo [3]; Lung uptake,0.95 ± 0.14 %ID/g
same,tissue uptake at 1 h,in vivo [3]; Lung uptake,1.25 ± 0.6 %ID/g
same,tissue uptake at 2 h,in vivo [3]; Lung uptake,0.87 ± 0.31 %ID/g
same,tissue uptake at 0.5 h,in vivo [3]; Muscle uptake,0.52 ± 0.27 %ID/g
same,tissue uptake at 2 h,in vivo [3]; Muscle uptake,0.72 ± 0.36 %ID/g
same,tissue uptake at 0.5 h,in vivo [3]; Small intestine uptake,0.57 ± 0.21 %ID/g
same,tissue uptake at 2 h,in vivo [3]; Small intestine uptake,0.5 ± 0.27 %ID/g
same,tissue uptake at 0.5 h,in vivo [3]; Spleen uptake,0.71 ± 0.2 %ID/g
same,tissue uptake at 2 h,in vivo [3]; Spleen uptake,0.45 ± 0.23 %ID/g
same,tissue uptake at 0.5 h,in vivo [3]; Stomach uptake,0.74 ± 0.27 %ID/g
same,tissue uptake at 2 h,in vivo [3]; Stomach uptake,1.63 ± 0.27 %ID/g
same,tissue uptake at 0.5 h,in vivo [3]; Tumor uptake,3 ± 0.63 %ID/g
same,tissue uptake at 2 h,in vivo [3]; Tumor uptake,9.53 ± 2.38 %ID/g

# From PMC12439480, “Dimeric CCK2R radiotheranostic tracers synergize with mTOR inhibition for enhanced tumor therapy” (Theranostics, 2025)
